Results: patent US11337976B2 (Plexxikon Inc., priority 2011, dated 2022)

System: A375 melanoma cells (B-Raf V600E mutation)
Experiment: A375 (A375_P-ERK) cell activity / cell growth inhibition assay
Type: cell-based, human
Details: Homo sapiens, A-375; A375 cells (text: A375_P-ERK)
Protocol: Compounds are assessed in a variety of cell based assays. For example human cell lines with B-RafV600E mutation (A375 melanoma, SKMEL3 melanoma, and COLO205 colon adenocarcinoma), as well as tumorigenic cell lines with wild-type B-RAF (SW620 colon adenocarcinoma) or with Ras mutations (SKMEL2 melanoma and IPC298 melanoma).
On day 1, cells are counted, then centrifuged in a conical tube for 5 minutes at 1000 rpm.
On day 2, compound at a maximum concentration of 5 mM is serially diluted 1:3 (e.g. 10 μL with 30 μL dimethyl sulfoxide) for a total of 8 point titration with DMSO as a control. A 1 μL aliquot of each dilution point and control is added to 249 μL growth media and 50 μL is added to a well containing cells, providing 10 μM compound at the maximum concentration point. The cells are incubated for 3 days at 37° C. in 5% CO2.
ATPlite is added 25 μL to each well, shake for 2 minutes, and the cells are incubated at room temperature for 10 minutes, then luminescence is read on Safire reader. The measured luminescence correlates directly with cell number, such that the reading as a function of compound concentration is used to determine the IC50 value.

Structure (SMILES)	IC50 [µM]
CCCN(C)S(=O)(=O)Nc1ccc(F)c(C(=O)c2c[nH]c3ncc(-c4cnc(C5CC5)nc4)cc23)c1F [P-0078, 5-(2-cyclopropylpyrimidin-5-yl)-3-[2,6-difluoro-3-[[methyl(propyl)sulfamoyl]amino]benzoyl]-1H-pyrrolo[2,3-b]pyridine]	< 1
CCC(C)S(=O)(=O)Nc1ccc(F)c(C(=O)c2c[nH]c3ncc(-c4ccc(Cl)cc4)cc23)c1F (stereo not shown) [P-0337, N-[3-[5-(4-chlorophenyl)-1H-pyrrolo[2,3-b]pyridine-3-carbonyl]-2,4-difluoro-phenyl]butane-2-sulfonamide]	> 1
O=C(c1cccc(NS(=O)(=O)N2CC[C@@H](F)C2)c1F)c1c[nH]c2ncc(-c3cnc(C4CC4)nc3)cc12 [P-0327, (3R)—N-[3-[5-(2-cyclopropylpyrimidin-5-yl)-1H-pyrrolo[2,3-b]pyridine-3-carbonyl]-2-fluoro-phenyl]-3-fluoro-pyrrolidine-1-sulfonamide]	< 1
O=C(c1c(F)ccc(NS(=O)(=O)N2CCCC2)c1F)c1c[nH]c2ncc(-c3cnc(C4CC4)nc3)cc12 [P-0241, N-[3-[5-(2-cyclopropylpyrimidin-5-yl)-1H-pyrrolo[2,3-b]pyridine-3-carbonyl]-2,4-difluoro-phenyl]pyrrolidine-1-sulfonamide]	< 1
CN(C)S(=O)(=O)Nc1cccc(C(=O)c2c[nH]c3ncc(I)cc23)c1F [P-0110, 3-[3-(dimethylsulfamoylamino)-2-fluoro-benzoyl]-5-iodo-1H-pyrrolo[2,3-b]pyridine]	< 1
CN1CCN(c2cc(-c3cnc4[nH]cc(C(=O)c5cccc(NS(=O)(=O)N6CCCC6)c5F)c4c3)ncn2)CC1 [P-0322, N-[2-fluoro-3-[5-[6-(4-methylpiperazin-1-yl)pyrimidin-4-yl]-1H-pyrrolo[2,3-b]pyridine-3-carbonyl]phenyl]pyrrolidine-1-sulfonamide]	< 1
Cn1cc(-c2cnc3[nH]cc(C(=O)c4cccc(NS(=O)(=O)CC5CC5)c4F)c3c2)cn1 [P-0042, 1-cyclopropyl-N-[2-fluoro-3-[5-(1-methylpyrazol-4-yl)-1H-pyrrolo[2,3-b]pyridine-3-carbonyl]phenyl]methanesulfonamide]	< 1
COCCS(=O)(=O)Nc1cccc(C(=O)c2c[nH]c3ncc(-c4cnc(OC)nc4)cc23)c1F [P-0065, N-[2-fluoro-3-[5-(2-methoxypyrimidin-5-yl)-1H-pyrrolo[2,3-b]pyridine-3-carbonyl]phenyl]-2-methoxy-ethane sulfonamide]	< 1
CN(CC(F)(F)F)S(=O)(=O)Nc1ccc(F)c(C(=O)c2c[nH]c3ncc(-c4cnc(C5CC5)nc4)cc23)c1F [P-0340, 5-(2-cyclopropylpyrimidin-5-yl)-3-[2,6-difluoro-3-[[methyl(2,2,2-trifluoroethyl)sulfamoyl]amino]benzoyl]-1H-pyrrolo[2,3-b]pyridine]	< 1
CN(C1CC1)S(=O)(=O)Nc1ccc(F)c(C(=O)c2c[nH]c3ncc(-c4cnc(C5CC5)nc4)cc23)c1F [P-0252, 3-[3-[[cyclopropyl(methyl)sulfamoyl]amino]-2,6-difluoro-benzoyl]-5-(2-cyclopropylpyrimidin-5-yl)-1H-pyrrolo[2,3-b]pyridine]	< 1
Nc1ncc(-c2cnc3[nH]cc(C(=O)c4c(F)ccc(NS(=O)(=O)N5CCCC5)c4F)c3c2)cn1 [P-0279, N-[3-[5-(2-aminopyrimidin-5-yl)-1H-pyrrolo[2,3-b]pyridine-3-carbonyl]-2,4-difluoro-phenyl]pyrrolidine-1-sulfonamide]	> 1
CN(C)S(=O)(=O)Nc1cccc(C(=O)c2c[nH]c3ncc(-c4cnc(N5CCCC5)nc4)cc23)c1F [P-0107, 3-[3-(dimethylsulfamoylamino)-2-fluoro-benzoyl]-5-(2-pyrrolidin-1-ylpyrimidin-5-yl)-1H-pyrrolo[2,3-b]pyridine]	< 1
Nc1cc(-c2cnc3[nH]cc(C(=O)c4cccc(NS(=O)(=O)N5CCCC5)c4F)c3c2)ncn1 [P-0299, N-[3-[5-(6-aminopyrimidin-4-yl)-1H-pyrrolo[2,3-b]pyridine-3-carbonyl]-2-fluoro-phenyl]pyrrolidine-1-sulfonamide]	> 1
CNS(=O)(=O)Nc1ccc(F)c(C(=O)c2c[nH]c3ncc(-c4cnc(C5CC5)nc4)cc23)c1F [P-0334, [5-(2-cyclopropylpyrimidin-5-yl)-1H-pyrrolo[2,3-b]pyridin-3-yl]-[2,6-difluoro-3-(methylsulfamoylamino)phenyl]methanone]	> 1
CN1CCN(c2cccc(-c3cnc4[nH]cc(C(=O)c5cccc(NS(=O)(=O)N6CCCC6)c5F)c4c3)n2)CC1 [P-0324, N-[2-fluoro-3-[5-[6-(4-methylpiperazin-1-yl)-2-pyridyl]-1H-pyrrolo[2,3-b]pyridine-3-carbonyl]phenyl]pyrrolidine-1-sulfonamide]	< 1
CN(C)c1ncc(-c2cnc3[nH]cc(C(=O)c4cccc(NS(=O)(=O)N(C)C)c4F)c3c2)cn1 [P-0106, 5-[2-(dimethylamino)pyrimidin-5-yl]-3-[3-(dimethylsulfamoylamino)-2-fluoro-benzoyl]-1H-pyrrolo[2,3-b]pyridine]	< 1

Structure (SMILES)	IC50 [µM]
O=C(c1cccc(NS(=O)(=O)N2CCCC2)c1F)c1c[nH]c2ncc(-c3cnc(N4CCCC4)nc3)cc12 [P-0109, N-[2-fluoro-3-[5-(2-pyrrolidin-1-ylpyrimidin-5-yl)-1H-pyrrolo[2,3-b]pyridine-3-carbonyl]phenyl]pyrrolidine-1-sulfonamide]	< 1
N#CC1(c2ccc(-c3cnc4[nH]cc(C(=O)c5c(F)ccc(NS(=O)(=O)N6CCCC6)c5F)c4c3)cc2)CC1 [P-0248, N-[3-[5-[4-(1-cyanocyclopropyl)phenyl]-1H-pyrrolo[2,3-b]pyridine-3-carbonyl]-2,4-difluoro-phenyl]pyrrolidine-1-sulfonamide]	< 1
CCN(C)S(=O)(=O)Nc1cccc(C(=O)c2c[nH]c3ncc(-c4cnc(OC)nc4)cc23)c1F [P-0020]	< 1
CN(C)S(=O)(=O)Nc1cccc(C(=O)c2c[nH]c3ncc(-c4ccc(C(F)(F)F)nc4)cc23)c1F [P-0053, 3-[3-(dimethylsulfamoylamino)-2-fluoro-benzoyl]-5-[6-(trifluoromethyl)-3-pyridyl]-1H-pyrrolo[2,3-b]pyridine]	< 1
COc1ncc(-c2cnc3[nH]cc(C(=O)c4cccc(NS(=O)(=O)N5CCCC5C)c4F)c3c2)cn1 (stereo not shown) [P-0074, N-[2-fluoro-3-[5-(2-methoxypyrimidin-5-yl)-1H-pyrrolo[2,3-b]pyridine-3-carbonyl]phenyl]-2-methyl-pyrrolidine-1-sulfonamide]	< 1
CCN(C)S(=O)(=O)Nc1ccc(F)c(C(=O)c2c[nH]c3ncc(-c4cnc(N5CCNCC5)nc4)cc23)c1F [P-0268, 3-[3-[[ethyl(methyl)sulfamoyl]amino]-2,6-difluoro-benzoyl]-5-(2-piperazin-1-ylpyrimidin-5-yl)-1H-pyrrolo[2,3-b]pyridine]	< 1
CCN(C)S(=O)(=O)Nc1cccc(C(=O)c2c[nH]c3ncc(-c4ccc(Cl)cc4)cc23)c1F [P-0019]	< 1
COc1cc(-c2cnc3[nH]cc(C(=O)c4cccc(NS(=O)(=O)N(C)C)c4F)c3c2)ccc1C#N [P-0054, 5-(4-cyano-3-methoxy-phenyl)-3-[3-(dimethylsulfamoylamino)-2-fluoro-benzoyl]-1H-pyrrolo[2,3-b]pyridine]	< 1
O=C(c1c(F)ccc(NS(=O)(=O)N2CCCC2)c1F)c1c[nH]c2ncc(-c3ccnc(N4CCOCC4)n3)cc12 [P-0282, N-[2,4-difluoro-3-[5-(2-morpholinopyrimidin-4-yl)-1H-pyrrolo[2,3-b]pyridine-3-carbonyl]phenyl]pyrrolidine-1-sulfonamide]	< 1
COc1ncc(-c2cnc3[nH]cc(C(=O)c4cccc(NS(=O)(=O)N5CC(F)(F)C5)c4F)c3c2)cn1 [P-0088, 3,3-difluoro-N-[2-fluoro-3-[5-(2-methoxypyrimidin-5-yl)-1H-pyrrolo[2,3-b]pyridine-3-carbonyl]phenyl]azetidine-1-sulfonamide]	< 1
N#Cc1ccc(-c2cnc3[nH]cc(C(=O)c4cccc(NS(=O)(=O)N5CCCC5)c4F)c3c2)cc1 [P-0090, N-[3-[5-(4-cyanophenyl)-1H-pyrrolo[2,3-b]pyridine-3-carbonyl]-2-fluoro-phenyl]pyrrolidine-1-sulfonamide]	< 1
CCN(C)S(=O)(=O)Nc1ccc(F)c(C(=O)c2c[nH]c3ncc(C#N)cc23)c1F [P-0017, 5-cyano-3-[3-[[ethyl(methyl)sulfamoyl]amino]-2,6-difluoro-benzoyl]-1H-pyrrolo[2,3-b]pyridine]	< 1
CCC(C)S(=O)(=O)Nc1cccc(C(=O)c2c[nH]c3ncc(-c4cnc(N5CCOCC5)nc4)cc23)c1F (stereo not shown) [P-0236, N-[2-fluoro-3-[5-(2-morpholinopyrimidin-5-yl)-1H-pyrrolo[2,3-b]pyridine-3-carbonyl]phenyl]butane-2-sulfonamide]	< 1
O=C(c1cccc(NS(=O)(=O)N2CCCC2)c1F)c1c[nH]c2ncc(-c3cc(N4CCOCC4)ncn3)cc12 [P-0321, N-[2-fluoro-3-[5-(6-morpholinopyrimidin-4-yl)-1H-pyrrolo[2,3-b]pyridine-3-carbonyl]phenyl]pyrrolidine-1-sulfonamide]	< 1
CCOc1ncc(-c2cnc3[nH]cc(C(=O)c4c(F)ccc(NS(=O)(=O)N(C)CC)c4F)c3c2)cn1 [P-0256, 5-(2-ethoxypyrimidin-5-yl)-3-[3-[[ethyl(methyl)sulfamoyl]amino]-2,6-difluoro-benzoyl]-1H-pyrrolo[2,3-b]pyridine]	< 1
